Data published in ChEMBL document CHEMBL5634187, “Identification of Selective Imidazopyridine CSF1R Inhibitors” (ACS Med Chem Lett, 2024).
In brackets after ≈: the same amount, converted by molar mass.

Columns and labels:
[1] = biological target: CYP450 (isoform not stated) (Homo sapiens, UniProt P04798+P05177+P05181+P08684+P10632+P10635+P11509+P11712+P13584+P20813+P20815+P20853+P24462+P24903+P33260+P33261+P51589+P78329+P98187+Q02928+Q08477+Q16678+Q16696+Q5TCH4+Q6VVX0+Q7Z449+Q8TAV3+Q96SQ9+Q9HB55); test: in vitro
[2] = in vitro; details: human, liver microsomes
Description: Intrinsic clearance in human liver microsomes

[3] = in vivo; details: Sprague-Dawley, rat, po, 3 mg/kg
Description: Half-life in Sprague-Dawley rat at 3 mg/kg, po

[4] = physchem; details: octanol/water
Description: Lipophilicity, logD of the compound

[5] = in vivo; details: Sprague-Dawley, rat, iv, 1 mg/kg
[6] = in vivo; details: Sprague-Dawley, rat, iv, 1 mg/kg; remark: listed apart in the source
[7] = in vitro; details: rat, liver microsomes
Description: Intrinsic clearance in rat liver microsomes

[8] = biological target: Cytochrome P450 3A4 (Homo sapiens, UniProt P08684); test: Inhibition of CYP450 3A4 (unknown origin) using midazolam as substrate; type: ADME
Cytochrome P450 3A4, sequence (P08684 whole entry): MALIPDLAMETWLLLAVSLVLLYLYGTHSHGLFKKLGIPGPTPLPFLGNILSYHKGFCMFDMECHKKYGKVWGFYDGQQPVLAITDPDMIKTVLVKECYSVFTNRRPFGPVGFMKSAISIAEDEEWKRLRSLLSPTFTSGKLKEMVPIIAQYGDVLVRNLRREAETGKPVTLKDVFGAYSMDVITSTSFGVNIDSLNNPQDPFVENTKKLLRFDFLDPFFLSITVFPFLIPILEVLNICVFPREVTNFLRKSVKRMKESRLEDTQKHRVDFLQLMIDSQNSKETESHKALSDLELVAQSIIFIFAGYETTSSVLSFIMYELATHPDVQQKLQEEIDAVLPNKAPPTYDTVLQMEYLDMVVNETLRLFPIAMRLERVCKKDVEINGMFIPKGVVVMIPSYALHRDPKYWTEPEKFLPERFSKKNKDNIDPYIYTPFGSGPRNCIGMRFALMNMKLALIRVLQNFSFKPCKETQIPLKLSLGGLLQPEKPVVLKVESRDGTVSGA

[9] = in vivo; details: Sprague-Dawley, rat, iv, 1 mg/kg; remark: listed apart in the source
Description: Half-life in Sprague-Dawley rat at 1 mg/kg, iv

[10] = in vivo; details: Sprague-Dawley, rat, po, 3 mg/kg; remark: listed apart in the source
[11] = in vivo; details: Sprague-Dawley, rat, po, 3 mg/kg; remark: listed apart in the source
[12] = physchem; details: buffer, pH 7.4
Description: Solubility of compound at pH 7.4

[13] = in vivo; details: Sprague-Dawley, rat, iv, 1 mg/kg; remark: listed apart in the source
Description: Clearance in Sprague-Dawley rat at 1 mg/kg, iv

[14] = in vitro; details: human, Caco-2
Description: Permeability in human Caco-2 cells

[15] = in vivo; details: Sprague-Dawley, rat, po, 3 mg/kg; remark: listed apart in the source
[16] = biological target: Mast/stem cell growth factor receptor Kit (Homo sapiens, UniProt P10721)
Mast/stem cell growth factor receptor Kit, sequence (P10721 whole entry): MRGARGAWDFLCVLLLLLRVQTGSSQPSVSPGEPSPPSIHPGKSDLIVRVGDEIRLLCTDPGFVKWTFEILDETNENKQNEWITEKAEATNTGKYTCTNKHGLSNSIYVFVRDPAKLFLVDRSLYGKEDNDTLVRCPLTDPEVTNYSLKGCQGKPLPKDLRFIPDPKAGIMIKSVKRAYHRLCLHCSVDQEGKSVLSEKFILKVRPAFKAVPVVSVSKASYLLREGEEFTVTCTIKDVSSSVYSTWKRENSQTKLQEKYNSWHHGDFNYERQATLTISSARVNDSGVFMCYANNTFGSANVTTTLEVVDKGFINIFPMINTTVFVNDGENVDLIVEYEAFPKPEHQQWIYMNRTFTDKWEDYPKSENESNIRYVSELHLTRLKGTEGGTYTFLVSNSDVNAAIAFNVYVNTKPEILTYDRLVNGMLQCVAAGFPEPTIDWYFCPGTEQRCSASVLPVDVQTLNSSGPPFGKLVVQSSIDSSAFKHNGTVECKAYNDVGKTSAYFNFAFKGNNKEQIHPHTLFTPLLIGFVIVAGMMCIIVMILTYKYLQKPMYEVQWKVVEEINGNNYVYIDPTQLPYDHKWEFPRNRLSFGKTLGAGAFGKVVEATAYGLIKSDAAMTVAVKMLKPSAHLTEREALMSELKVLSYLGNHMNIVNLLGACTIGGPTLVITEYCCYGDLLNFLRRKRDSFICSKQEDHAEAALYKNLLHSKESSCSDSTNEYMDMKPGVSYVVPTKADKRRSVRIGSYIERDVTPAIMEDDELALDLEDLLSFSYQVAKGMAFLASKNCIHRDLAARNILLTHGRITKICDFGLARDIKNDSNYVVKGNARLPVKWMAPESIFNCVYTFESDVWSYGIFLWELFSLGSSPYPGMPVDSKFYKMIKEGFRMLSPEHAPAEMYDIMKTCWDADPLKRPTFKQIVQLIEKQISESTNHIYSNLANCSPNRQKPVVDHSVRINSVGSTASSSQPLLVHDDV
Description: Inhibition of c-Kit (unknown origin)

| Structure (SMILES) | IC50 [1] [µM] | microsomal CLint [2] [µL/min/mg] | logD [4] | microsomal CLint [7] [µL/min/mg] | solubility [12] [µg/mL] | Papp [14] [×10⁻⁶ cm/s] | other results |
| --- | --- | --- | --- | --- | --- | --- | --- |
| COc1ccc(COc2ccc(Cn3cnc4cc(C(=O)N5CC6(COC6)C5)cnc43)cc2OC)cn1 | > 10 | – | – | – | – | – | – |
| COc1ccc(COc2ccc(Cn3cnc4cc(C#CC5CCNC5)cnc43)cc2OC)cn1 (centres undefined) | – | 16 | 1.5 | 19 | 57 (≈ 121 µM) | 5.1 | half-life [3]: 1.7 h; AUC(0-inf) [5]: 542 ng·h/mL; Vd [6]: 4.89 L/kg; IC50 [8]: 6.6 µM; half-life [9]: 2 h; bioavailability [10]: 36%; Cmax [11]: 108 ng/mL; clearance [13]: 31 mL/min/kg; AUC(0-inf) [15]: 625 ng·h/mL |
| Cc1nc(-c2cnc(NC(C)C)n(C)c2=O)ccc1Oc1ccnc(-c2cnn(C)c2)c1 [VIMSELTINIB] | – | – | – | – | – | – | IC50 [16]: 0.48 µM |
| COc1ccc(COc2ccc(Cc3cnc(N)nc3N)cc2OC)cc1 [GW632580X] | > 10 | – | 2.6 | – | 1.2 (≈ 3.27 µM) | 11 | – |
| COc1ccc(COc2ccc(Cn3cnc4cc(OC5CCNCC5)cnc43)cc2OC)cn1 | > 10 | – | – | – | – | – | – |

Continued, in another order:

| IC50 [1] [µM] | microsomal CLint [2] [µL/min/mg] | logD [4] | microsomal CLint [7] [µL/min/mg] | solubility [12] [µg/mL] | Papp [14] [×10⁻⁶ cm/s] | Structure (SMILES) | other results |
| --- | --- | --- | --- | --- | --- | --- | --- |
| > 10 | 21 | 1.6 | < 7.2 | 13 (≈ 26 µM) | 2 | COc1ccc(COc2ccc(Cn3cnc4cc(-n5cc(C(C)(C)N)nn5)cnc43)cc2OC)cn1 | – |
| > 10 | 33 | 2.3 | 130 | > 450 | 29 | COc1ccc(COc2ccc(Cn3cnc4cc(N5CCN(C)CC5)cnc43)cc2OC)cn1 | – |
| > 10 | – | – | – | – | – | COc1ccc(COc2ccc(Cn3cnc4cc(C(=O)N(C)C)cnc43)cc2OC)cn1 | – |
